Consider two compounds from ChEMBL document CHEMBL1137581, “Synthesis of 1-deoxy-1-hydroxymethyl- and 1-deoxy-1-epi-hydroxymethyl castanospermine as new potential immunomodulating agents” (2007).

The target in assay [1] is Mannosyl-oligosaccharide 1,2-alpha-mannosidase IA (Homo sapiens) (UniProt P33908). The assay is described as follows: Inhibition of human alpha mannosidase.
The target of assay [2] is T1, Alpha-galactosidase A (Homo sapiens) (UniProt P06280).
T1 sequence (whole entry): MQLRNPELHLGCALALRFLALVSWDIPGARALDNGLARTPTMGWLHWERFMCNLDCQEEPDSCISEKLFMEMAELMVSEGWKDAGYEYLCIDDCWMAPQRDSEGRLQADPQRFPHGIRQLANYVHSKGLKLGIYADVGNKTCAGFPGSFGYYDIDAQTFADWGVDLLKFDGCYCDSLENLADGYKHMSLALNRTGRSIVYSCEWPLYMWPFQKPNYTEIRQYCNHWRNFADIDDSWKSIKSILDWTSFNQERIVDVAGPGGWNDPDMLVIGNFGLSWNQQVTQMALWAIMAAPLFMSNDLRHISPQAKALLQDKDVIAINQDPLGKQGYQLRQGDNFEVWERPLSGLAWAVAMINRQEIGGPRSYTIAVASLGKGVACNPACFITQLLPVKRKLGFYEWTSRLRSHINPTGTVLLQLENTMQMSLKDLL
The assay is described as follows: Inhibition of human alpha galactosidase.

For assay [3], the target named is T2, Neutral alpha-glucosidase AB (Homo sapiens) (UniProt Q14697).
T2 sequence (whole entry): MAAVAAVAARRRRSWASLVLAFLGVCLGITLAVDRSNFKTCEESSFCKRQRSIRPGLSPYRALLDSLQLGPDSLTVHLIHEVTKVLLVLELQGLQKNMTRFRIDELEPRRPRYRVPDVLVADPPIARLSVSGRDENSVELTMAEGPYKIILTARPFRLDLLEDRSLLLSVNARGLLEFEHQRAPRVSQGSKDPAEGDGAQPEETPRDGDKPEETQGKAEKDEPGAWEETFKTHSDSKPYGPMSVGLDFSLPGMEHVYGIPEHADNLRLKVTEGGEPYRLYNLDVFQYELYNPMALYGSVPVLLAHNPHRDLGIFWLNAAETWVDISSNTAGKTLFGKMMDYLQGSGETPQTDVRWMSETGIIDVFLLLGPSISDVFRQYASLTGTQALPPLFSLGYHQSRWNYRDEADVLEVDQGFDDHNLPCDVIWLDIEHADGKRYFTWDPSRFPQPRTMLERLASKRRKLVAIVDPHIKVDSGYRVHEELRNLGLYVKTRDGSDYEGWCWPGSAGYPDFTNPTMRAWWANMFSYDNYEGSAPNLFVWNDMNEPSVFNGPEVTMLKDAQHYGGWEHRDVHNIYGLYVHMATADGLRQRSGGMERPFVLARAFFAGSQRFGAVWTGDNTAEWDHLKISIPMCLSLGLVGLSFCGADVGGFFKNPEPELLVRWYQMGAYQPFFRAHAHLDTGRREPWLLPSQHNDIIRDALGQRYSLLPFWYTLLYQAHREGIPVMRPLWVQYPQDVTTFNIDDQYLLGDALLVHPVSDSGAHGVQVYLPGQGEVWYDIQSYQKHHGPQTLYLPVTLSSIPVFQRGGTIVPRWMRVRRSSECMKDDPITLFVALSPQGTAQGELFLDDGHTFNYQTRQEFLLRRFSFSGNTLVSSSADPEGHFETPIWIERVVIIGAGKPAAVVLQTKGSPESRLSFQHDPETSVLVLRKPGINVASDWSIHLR
The assay is described as follows: Inhibition of human alpha glucosidase.

The species named for assay [4] is Homo sapiens. Nature of the assay: Inhibition of human beta glucosidase.
The species named for assay [5] is Homo sapiens. The assay is described as follows: Inhibition of human beta galactosidase.
Assay [6] can be described thus: Enhancement of ConA-induced proliferation in Swiss Albino mouse splenocyte at 5 uM after 72 hrs by MTT assay relative to control. It is filed as functional. Background: Tetrazolium dyes change colour on reduction, which living cells bring about.
A short description of assay [7]: Enhancement of ConA-induced proliferation in Swiss Albino mouse splenocyte at 10 uM after 72 hrs by MTT assay relative to control. It counts as functional.
A short description of assay [8]: Enhancement of ConA-induced proliferation in Swiss Albino mouse splenocyte at 20 uM after 72 hrs by MTT assay relative to control. It is filed as functional.
The subject of assay [9] is Splenocyte. The assay is described as follows: (§1) Enhancement of ConA-induced proliferation in Swiss Albino mouse splenocyte at 75 uM after 72 hrs by MTT assay relative to control. It counts as functional.
Assay [10] is described as follows: Enhancement of ConA-induced proliferation in Swiss Albino mouse splenocyte at 100 uM after 72 hrs by MTT assay relative to control. It is filed as functional.
A short description of assay [11]: Reduction of ConA-induced IL4 secretion in Swiss Albino mouse splenocytes by ELISA relative to control. Further details: scale not given: the % may be the effect or the level left. It counts as functional, Splenocyte. On the technique in general: An ELISA detects its analyte on a solid surface through an enzyme-linked reagent.
Assay [12] can be described thus: Enhancement of ConA-induced IL6 secretion in Swiss Albino mouse splenocytes by ELISA relative to control. It counts as functional, Splenocyte.
Assay [13] is described as follows: Enhancement of ConA-induced IFN-gamma secretion in Swiss Albino mouse splenocytes by ELISA relative to control. It counts as functional, Splenocyte.
A short description of assay [14]: Enhancement of ConA-induced IL2 secretion in Swiss Albino mouse splenocytes by ELISA relative to control. It is filed as functional, Splenocyte.
The nature of assay [15]: as §1. It counts as functional.

The structures appear in SMILES notation. Activity calls are given as the source filed them. The calls are words filed in the database; no cut-off is given here.

Sequence of Mannosyl-oligosaccharide 1,2-alpha-mannosidase IA (Homo sapiens) (P33908 whole entry): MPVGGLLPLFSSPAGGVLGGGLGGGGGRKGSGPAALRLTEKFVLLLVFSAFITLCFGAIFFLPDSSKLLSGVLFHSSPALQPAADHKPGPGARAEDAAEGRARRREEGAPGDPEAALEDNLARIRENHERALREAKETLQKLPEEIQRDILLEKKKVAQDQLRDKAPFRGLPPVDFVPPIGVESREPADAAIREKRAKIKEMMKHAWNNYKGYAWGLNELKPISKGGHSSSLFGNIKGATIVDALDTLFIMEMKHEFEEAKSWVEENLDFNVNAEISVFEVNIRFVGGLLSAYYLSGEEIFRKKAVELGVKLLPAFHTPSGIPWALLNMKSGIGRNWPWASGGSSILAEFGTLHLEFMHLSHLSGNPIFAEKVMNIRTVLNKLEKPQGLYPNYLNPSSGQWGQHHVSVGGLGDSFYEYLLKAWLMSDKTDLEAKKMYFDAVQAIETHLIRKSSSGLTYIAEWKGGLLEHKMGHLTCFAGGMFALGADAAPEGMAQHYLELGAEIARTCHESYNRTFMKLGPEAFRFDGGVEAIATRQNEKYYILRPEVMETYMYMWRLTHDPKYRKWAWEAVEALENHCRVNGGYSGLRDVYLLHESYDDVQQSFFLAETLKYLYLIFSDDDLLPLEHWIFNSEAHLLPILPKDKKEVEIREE

In the case of `OC[C@H]1CCN2C[C@H](O)[C@@H](O)[C@H](O)[C@@H]12`, the outcome in [1], in [2], in assay [3], in [4], in [5] and in assay [9] was inactive. Besides, the Activity in assay [6] is given as 161%; in assay [7], 109%; in [8], 40%; in [10], 27%; in assay [11], 20.6%; in assay [13], 40.5%. The Activity in assay [14] was determined as 6.6%. The Ratio in assay [12] is recorded as more than 5.5.
With `OC[C@@H]1CCN2C[C@H](O)[C@@H](O)[C@H](O)[C@@H]12`, the outcome in assay [1], in assay [2], in [3], in assay [4] and in [5] was inactive. Also, the Activity is 19% in assay [6]; 61% in [7]; 69% in [8]; 41% in assay [15]; 31% in assay [10]; 47% in assay [11]. The Activity was found to be 9.5% in assay [13] and 3.3% in assay [14]. For the same compound, the Ratio in [12] is more than 9.
